SMILES strings stand for the structures. “And” between values parts separate entries of the source, which are not always exact repeats. Identical values can stand only once. Marks after values point to notes of the source that are not given here.

The test system of assay [1] is male rats. The assay can be described thus: Benign prostatic hyperplasia (BPH) model induced with Sulpiride, prostate weight and morphometry. It is filed as in vivo, rat. As for the experimental part: This is manifested in a decrease in the severity of the morphological changes typical in these diseases. CAP was simulated by suturing the ventral lobe of the gland with a silk thread, and BPH was simulated by the administration of Sulpiride. The reference drug was Prostamol Uno.
Animals with BPH received Teramide intragastrically for 2 months at a dose of 0.5 mg/kg.
Experiments were performed on 40 male Wistar rats (3 months of age). To simulate chronic abacterial prostatitis, the ventral lobe of the prostate was sutured with a silk thread (under anesthesia). The model of benign prostatic hyperplasia (BPH) was simulated in rats by inducing hyperprolactinaemia, for which male rats were intraperitoneally injected with Sulpiride at a dose of 40 mg/kg every day for 2 months (Eglonil, Sanofi Winthrop Industry, France).
The ability of Treamid to normalize the structure of the prostate gland was studied in the presence of administration of Sulpiride. For this purpose, Treamid was administered intragastrically for 2 months at a dose of 0.5 mg/kg simultaneously with Sulpirid. The control animals received a solvent (2% starch mucus) in an equivalent volume. The animals of the comparison group were injected intragastrically with a solution of Prostamol Uno at a dose of 50 mg/kg. At the end of the administration course, the animals were weighed and euthanized in a CO2 chamber. Sulpiride is known to cause the development of BPH in the lateral lobe of the gland in rats [Van Coppenolle Fabien, Christian Slomianny, Francoise Carpentier Effects of hyperprolactinemia on rat prostate growth: evidence of androgeno—dependence.//Physiol. Endocrinol. Metab.—2001.—P. 120-129]. In this regard, this lobe was dissected. Its weight, weight coefficient, and volume were determined. Further, it was subjected to a morphological analysis. The lateral lobe of the prostate gland was fixed in 10% formalin and poured into paraffin, followed by preparation of sections of a thickness of 5 μm. Deparaffined sections of the gland were stained with hematoxylin and eosin. On the histological sections, the presence of proliferative centers and daughter acini were determined per standard section area. In addition, the area of the epithelial and stromal structures was measured on the standard area of a histological section. These parameters were determined by using a computer graphic analysis on the standard area of a histological section (micrographs of 10 serial visual fields performed by an AxioCam Erc5s camera mounted on an AxioLab A1 microscope (×10 lens, ×10 eyepiece), with an image transfer software of “AxioVision LE”, Carl Zeisis). The stromal-epithelial ratio was defined as a ratio of the area of stroma to the area of epithelium.
The effectiveness of the test compound was estimated by the following criteria: lower intensity of morphological symptoms of benign prostatic hyperplasia:—a decrease in the number of proliferation centers and daughter acini, and a decrease in the area of the epithelium.

In assay [2] the test system is male rats. It is filed as in vivo, rat. Conditions: Day 65. As for the experimental part:
The latter was simulated by a single injection of cytostatic drug Paclitaxel (Mitotax, Dr. Reddy's, India) to male rats (3 months of age). The choice of the drug was due to the fact that it is one of the medications that damage the precursors of spermatogenesis—stem cells.
Paclitaxel was administered to the animals of the control and test groups once intravenously at the maximum tolerated dose of 7.6 mg/kg. Treamid was administered to the animals of the experimental groups intragastrically at a dose of 5 mg/kg in the form of a suspension in 2% starch mucus for 15 days a month after the administration of Paclitaxel. The control animals received an equivalent volume of the solvent (2% starch mucus), instead of the test compound.
The colony-stimulating activity of the cells of the microenvironment of spermatogenic tissue (production of humoral regulators of spermatogenesis by Sertoli cells) was determined as follows. The above-described procedure was used to prepare a testis homogenate from which an adherent fraction of cells was isolated. The adherent cells were cultured for 24 hours in complete culture medium at 37° C., 5% CO2 and 100% air humidity. A day later, the supernatant was collected, which was stored at a temperature of […]. The level of humoral factors of spermatogenesis in the supernatant was tested by the test system of CFU-Sp of the testes of intact rats. […]

The test system of assay [3] is precursors for spermatogenic tissue. The assay can be described thus: Growth of colonies from CFU-Sp with in vitro addition of Treamid. It is filed as cell-based, rat. Particulars: Cells of the testes of intact rats. As for the experimental part: The precursor cells of the studied organ were cultured by using an underlayer (represented by the cells of the adherent fraction) prepared in advance in a 96-well plate, as described above.
Further, a nonadherent cell fraction of spermatogenic tissue was isolated from the two groups of animals (intact animals and animals received Paclitaxel intravenously 24 hours prior to the study) and was transferred to the resulting underlayer in complete culture medium (80% DMEM, 20% FCS, L-glutamine, antibiotics, heparin) at a concentration of 2×10^5/ml. Prior to the incubation in the complete culture medium, Treamid was added at a concentrations of 1 ng/ml, 3 ng/ml, 10 ng/ml, 30 ng/ml, 100 ng/ml, 300 ng/ml and 1000 ng/ml. The incubation lasted for 7 days in a CO2 incubator at 37° C., 5% CO2 and 100% air humidity. After the incubation, the number of colony-forming units, spermatogenic (CFU-Sp)—clusters of more than 30 cells of round shape and of various diameters—was counted.
The effectiveness of Treamid was estimated by a significant increase in the number of cells giving rise to CFU-Sp in the culture with the addition of the test compound, compared to that in the control.
The direct action of Treamid on the precursors for spermatogenic tissue was studied in vitro by addition of Treamid to the cell culture at concentrations of 1, 30, 100, and 1000 ng/ml.

Where [4] appears, read: Treamid 0.5 mg/kg 2 months, Prostamol Uno 50 mg/kg.

Take `O=C(CCCC(=O)NCCc1ncc[nH]1)NCCc1ncc[nH]1` [Treamid]: in the assay with male rats [1] (setting [4]), the “Volume of the lateral lobe of the prostate gland, cm^3” value is on record as 0.62 ± 0.14# cm^3; the “Weight coefficient of the lateral lobe of the prostate gland” value is 0.69 ± 0.12 mg/g; the “Weight of the lateral lobe of the prostate gland” value came to 381.67 ± 70.30 mg. Moreover, in the assay with male rats [1] (group M ± m), the “Relative area (%) of the acinar epithelium on the standard area of a section of the lateral lobe” value is listed as 13.89 ± 2.08 %, the “Relative area (%) of the stroma on the standard area of a section of the lateral lobe” value came out at 45.66 ± 2.30 %, the “The number of daugter proliferative centers (abs.)” value stood at 1.60 ± 0.60 abs and the “The number of structures (abs.) consisting of 2-3 glandules tightly adjacent to each other” value worked out at 1.60 ± 0.81 abs. Also, in the assay on male rats [1] (individual animals), the “Relative area (%) of the acinar epithelium on the standard area of a section of the lateral lobe” value is 10.26% and 14.09% and 16.30% and 20.19% and 8.61%; the “Relative area (%) of the stroma on the standard area of a section of the lateral lobe” value is 48.61% and 45.59% and 44.14% and 38.12% and 51.82%; the “The number of daugter proliferative centers (abs.)” value is 3 abs. (2×) and 1 abs. (2×) and 0 abs; the “The number of structures (abs.) consisting of 2-3 glandules tightly adjacent to each other” value was 1 abs. and 3 abs. and 4 abs. and 0 abs. (2×). In the assay on male rats [2], the “increase of the secretory activity of the microenvironment cells compared to the control” value stood at 80%. Besides, in assay [3] (Treamid 1 ng/ml), the “CFU-Sp per 4 × 10^4 nuclears” value was 6.83 ± 0.48 per 4 × 10^4 nuclears. Besides, the “CFU-Sp per 4 × 10^4 nuclears” value in assay [3] (Treamid 30 ng/ml) is 6.0 ± 0.36 per 4 × 10^4 nuclears. Further, the “CFU-Sp per 4 × 10^4 nuclears” value in assay [3] (Treamid 100 ng/ml) stood at 8.50 ± 0.42 per 4 × 10^4 nuclears. Besides, the “CFU-Sp per 4 × 10^4 nuclears” value in assay [3] (Treamid 1000 ng/ml) worked out at 11.67 ± 1.81 per 4 × 10^4 nuclears.

For the origin of these results see patent US10076511B2, “Bisamide derivative of dicarboxylic acid as an agent for stimulating tissue regeneration and recovery of diminished tissue function” (TREAMID GmbH, priority 2015, dated 2018).
